Data: ChEMBL document CHEMBL1201862, “PubChem BioAssay data set” (2004)
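Exposure lasted 48 hours, with cells grown in 96-well plates and compounds tested at five concentrations. GI50 is the concentration that inhibits growth by half.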 Calls of active or inactive are those of the source. Rule as the data show it: active = GI50 up to about 1.1 µM and inactive = higher.

Key:
Test in all cases: NCI tumour cell line growth inhibition, 48 h
[1] = test system: A549
[2] = test system: SW-620
[3] = test system: SK-OV-3
[4] = test system: OVCAR-3
[5] = test system: NCI-H23
[6] = test system: A498
[7] = test system: SN12C
[8] = test system: NCI-H522
[9] = test system: KM12
[10] = test system: M19-MEL
[11] = test system: HT-29
[12] = test system: RPMI-8226
[13] = test system: MOLT-4
[14] = test system: NCI/ADR-RES
[15] = test system: HCT-116
[16] = test system: IGROV-1
[17] = test system: U-251
[18] = test system: NCI-H460
[19] = test system: K562
[20] = test system: SF-295
[21] = test system: UACC-62
[22] = test system: SK-MEL-5
[23] = test system: RXF 393
[24] = test system: UO-31
[25] = test system: SNB-75
[26] = test system: HOP-18
[27] = test system: CAKI-1
[28] = test system: HOP-92
[29] = test system: OVCAR-5
[30] = test system: SK-MEL-28
[31] = test system: LOX IMVI
[32] = test system: Malme-3M
[33] = test system: SNB-19
[34] = test system: EKVX
[35] = test system: HCT-15
[36] = test system: SK-MEL-2
[37] = test system: HCC 2998
[38] = test system: NCI-H226
[39] = test system: HOP-62
[40] = test system: OVCAR-4
[41] = test system: OVCAR-8
[42] = test system: UACC-257
[43] = test system: MCF7
[44] = test system: DLD-1
[45] = test system: DMS-114
[46] = test system: COLO 205
[47] = test system: KM-20L2
[48] = test system: DMS-273
[49] = test system: HL-60
[50] = test system: CCRF-CEM
[51] = test system: SF-268
[52] = test system: SNB-78
[53] = test system: SF-539
[54] = test system: XF498

## O=C(N[C@@H](c1ccccc1)[C@@H](O)C(=O)OCc1ccc2c(c1)OCO2)c1ccccc1
[1]
  GI50: > 100 µM (inactive)
[2]
  GI50: > 100 µM (inactive)
[3]
  GI50: > 100 µM (inactive)
[4]
  GI50: > 100 µM (inactive)
[5]
  GI50: > 100 µM (inactive)
[6]
  GI50: > 100 µM (inactive)
[7]
  GI50: > 100 µM (inactive)
[8]
  GI50: > 100 µM (inactive)
[9]
  GI50: > 100 µM (inactive)
[10]
  GI50: > 100 µM (inactive)
[11]
  GI50: > 100 µM (inactive)
[12]
  GI50: > 100 µM (inactive)
[13]
  GI50: > 91.8 µM (inactive)
[14]
  GI50: > 42.1 µM (inactive)
[15]
  GI50: > 100 µM (inactive)
[16]
  GI50: > 100 µM (inactive)
[17]
  GI50: > 100 µM (inactive)
[18]
  GI50: > 100 µM (inactive)
[19]
  GI50: > 100 µM (inactive)
[20]
  GI50: > 100 µM (inactive)
[21]
  GI50: > 80.7 µM (inactive)
[22]
  GI50: > 100 µM (inactive)
[23]
  GI50: 52.8 µM (inactive)
[24]
  GI50: > 91.6 µM (inactive)
[25]
  GI50: > 90.4 µM (inactive)
[26]
  GI50: > 100 µM (inactive)
[27]
  GI50: 1 µM (active)
[28]
  GI50: > 86.7 µM (inactive)
[29]
  GI50: > 31.6 µM (inactive)
[30]
  GI50: > 100 µM (inactive)
[31]
  GI50: > 100 µM (inactive)
[32]
  GI50: > 100 µM (inactive)
[33]
  GI50: > 100 µM (inactive)
[34]
  GI50: > 100 µM (inactive)
[35]
  GI50: > 100 µM
[36]
  GI50: > 100 µM (inactive)
[37]
  GI50: > 100 µM (inactive)
[38]
  GI50: > 84.1 µM (inactive)
[39]
  GI50: > 100 µM (inactive)
[40]
  GI50: > 100 µM (inactive)
[41]
  GI50: > 100 µM (inactive)
[42]
  GI50: > 100 µM (inactive)
[43]
  GI50: > 100 µM (inactive)
[44]
  GI50: > 100 µM (inactive)
[45]
  GI50: > 100 µM (inactive)
[46]
  GI50: > 100 µM (inactive)
[47]
  GI50: > 100 µM (inactive)
[48]
  GI50: > 100 µM (inactive)
[49]
  GI50: > 100 µM (inactive)
[50]
  GI50: > 100 µM (inactive)
[51]
  GI50: > 100 µM (inactive)
[52]
  GI50: > 100 µM (inactive)
[53]
  GI50: > 100 µM (inactive)
[54]
  GI50: > 76.2 µM (inactive)

## CC(=O)C(=Cc1cn(C)c(=O)n(C)c1=O)C(C)=O
[1]
  GI50: 157 µM (inactive)
[2]
  GI50: 106 µM (inactive)
[3]
  GI50: 99.8 µM (inactive)
[4]
  GI50: 116 µM (inactive)
[5]
  GI50: 69.5 µM (inactive)
[6]
  GI50: 101 µM (inactive)
[7]
  GI50: 99.1 µM (inactive)
[8]
  GI50: 16.8 µM (inactive)
[9]
  GI50: 85.1 µM (inactive)
[10]
  GI50: 109 µM (inactive)
[11]
  GI50: 113 µM (inactive)
[12]
  GI50: 89.9 µM (inactive)
[13]
  GI50: 119 µM (inactive)
[14]
  GI50: 93.1 µM (inactive)
[15]
  GI50: 87.5 µM (inactive)
[16]
  GI50: 150 µM (inactive)
[17]
  GI50: > 96.8 µM (inactive)
[18]
  GI50: 92.3 µM (inactive)
[19]
  GI50: 138 µM (inactive)
[20]
  GI50: 107 µM (inactive)
[21]
  GI50: 75.9 µM (inactive)
[22]
  GI50: 86.9 µM (inactive)
[23]
  GI50: 60.1 µM (inactive)
[24]
  GI50: 83.8 µM (inactive)
[25]
  GI50: 65 µM (inactive)
[26]
  GI50: 160 µM (inactive)
[27]
  GI50: 83 µM (inactive)
[28]
  GI50: 2.62 µM (inactive)
[29]
  GI50: 97.7 µM (inactive)
[30]
  GI50: 100 µM (inactive)
[31]
  GI50: 71.1 µM (inactive)
[32]
  GI50: 83 µM (inactive)
[33]
  GI50: 125 µM (inactive)
[34]
  GI50: 121 µM (inactive)
[35]
  GI50: 94 µM
[36]
  GI50: 106 µM (inactive)
[37]
  GI50: 122 µM (inactive)
[38]
  GI50: 116 µM (inactive)
[39]
  GI50: 137 µM (inactive)
[40]
  GI50: 105 µM (inactive)
[41]
  GI50: 126 µM (inactive)
[42]
  GI50: 85.9 µM (inactive)
[43]
  GI50: 159 µM (inactive)
[44]
  GI50: 94.8 µM (inactive)
[45]
  GI50: 88.9 µM (inactive)
[46]
  GI50: 80.9 µM (inactive)
[47]
  GI50: 85.7 µM (inactive)
[48]
  GI50: 98.6 µM (inactive)
[49]
  GI50: 84.3 µM (inactive)
[50]
  GI50: 49.4 µM (inactive)
[51]
  GI50: 148 µM (inactive)
[52]
  GI50: 214 µM (inactive)
[53]
  GI50: 103 µM (inactive)
[54]
  GI50: 37.8 µM (inactive)
